Experimental findings from patent US9643971B2 (GALLEON PHARMACEUTICALS, INC., priority 2013, dated 2017) are described below.

The structures appear in SMILES notation. Entries after “also recorded” stand apart in the source; their conditions may differ. Where a name gives a salt, the structure may show the parent alone. Read-outs that look alike come from different tables or passages of the source.

For data set [1], the system named is anesthetized rat. Briefly: Anesthetized rat spirometry screening assay. Format: in vivo. Put shortly:
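Rats under urethane (1.5 g/kg i.v., after isoflurane induction) with femoral and tracheal cannulas; compounds given as i.v. bolus at 0.1 and 0.3 mg/kg with formulation-matched vehicle. RR, VT and minute volume from pneumotachometer airflow, in 30 s bins over 6 min post-dose; arterial blood gases taken pre- and 6 min post-dose.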

Data set [2] is described as follows: In vitro metabolic stability in human liver microsomes (HLM). To be noted: for half-life at 5 μM: both, human; for HLM T½: human liver microsomes, 5 μM compound, NADPH, 37° C. In general terms: Liver microsomes are vesicles of endoplasmic reticulum, rich in cytochrome P450 enzymes.
Data set [3] can be described thus: in vitro. To be noted: male, rat, microsomes.
Data set [4] in a line: Pharmacokinetic and oral bioavailability in the rat. Format: in vivo, Sprague-Dawley rats. To be noted: Sprague-Dawley, plasma, oral gavage 10-30 mg/kg vs intravenous bolus 2-5 mg/kg. The method, then:
Sprague-Dawley rats (200-300 g) were fed a standard laboratory rodent diet and housed in individual cages on a 12-hour light and 12-hour dark cycle with room temperature maintained at 22±3° C. and relative humidity at 50±20%. Rats were fasted overnight before dosing, with food returned after the 6 hour blood samples were obtained. Bedding was removed until after the 6 hour blood samples were obtained. Water was provided ad libitum throughout the study.
Dosing solution of test compound was prepared in desired oral formulation for oral administration via gavage needle at 10-30 mg/kg (10 mL/kg) to three or four rats. […]
Plasma samples (incurred study samples, calibration standards, quality controls) were normally prepared as follows. […] Calibration standards were typically prepared in the range of 2 ng/ml to 10 μg/mL for quantitation. […]
All pharmacokinetic parameters were determined based on a non-compartmental approach using WinNonlin software (Pharsight, Version 5.1). The terminal elimination half-life (t1/2) was calculated as ln2/λz using the slope (λz) from linear regression analysis of the terminal phase of the plasma concentration-time curve on a semi-log scale. […] The systemic plasma clearance (CLp) was calculated as intravenous dose divided by AUCinf. The volume of distribution at steady state (Vss) was determined as the product of CLp and MRT. […]

The conditions of data set [5]: rat, microsomes.
Data set [6] can be described thus: In vitro metabolic stability in rat liver microsomes (RLM).
Data set [7] is described as follows: physchem. To be noted: organic solvent or mixture, thermodynamic from solid.
Protocol: A 3 mL vial with a screw cap was charged with 50 mg of the solid salt and 1 mL of a solvent at room temperature. The mixture was heated if necessary to achieve a clear solution, in some examples producing a mixture comprising a clear portion and a melt or incompletely dissolved crystalline material. The hot mixture was cooled to room temperature. […] Solvents evaluated include acetonitrile, methyl ethyl ketone, methyl isobutyl ketone, ethyl acetate, isopropyl acetate, water, heptane, methyl-tert-butyl ether, cyclohexane, toluene, methanol, ethanol, n-propanol, isopropanol, n-butanol, 2-butanol, isoamyl alcohol, and tetrahydrofuran.
In data set [8] the test system is rats chronically treated with morphine. Briefly: Apnea, ventilation and sleep structure in rats chronically treated with morphine (whole-body plethysmography). The format is in vivo, Zucker rats. To be noted: oral gavage, hydrochloride. The source says:
The objective of this study was to quantify the effects of selected compounds of this invention on apnea, ventilation and sleep structure in a rat model. The study consisted of two treatment conditions: (1) chronic morphine and test compound administered orally, and (2) chronic morphine and oral vehicle.
Adult male lean Zucker rats were anesthetized for electroencephalogram (EEG) and electromyogram (EMG) telemeter implantation. At least one week was permitted post-surgery before animals were used further. Morphine sulfate was added to the drinking water of singly housed rats beginning with 0.1 mg/ml morphine and increasing the concentration in increments, so that a final concentration of 0.6 mg/ml was achieved within 2 weeks. All respiratory measurements were made while animals were unrestrained in whole-body plethysmography chambers to permit animals to sleep and move freely. To avoid eliciting withdrawal, morphine water was continuously available during each plethysmography experiment. Minute volume and the number of central sleep apneas (CSA) were measured during all treatment conditions. A period of at least 1 to 1.5 h was permitted for animals to acclimate to the chamber before data collection began. The biopotential telemeters and their receivers were placed directly under the plethysmographic chambers and were used to continuously to capture EEG, EMG, and body temperature signals. Only data collected between the hours of 10 am to 4:30 pm were used in the final analysis to control for the effects of circadian rhythm on breathing.
Test compound in vehicle or an equivalent volume of vehicle was administered via an oral gavage tube at 12 pm. Data collected between 10 am and 12 pm represented baseline (pre-drug) conditions. Data collected between […] represented post-drug conditions. Analyses of the EEG and EMG waveforms for the purpose of staging sleep-wake behavior in rats as awake, NREM sleep, and REM sleep were based on previous sleep studies involving rodents. Central apneas were defined as a respiratory cycle period that was more than or equal to twice the average cycle period during baseline recordings. Percent time in each sleep-wake state, minute volume, and central sleep apnea counts were compared between treatment groups using a two-way ANOVA (factors: drug treatment and time). Breathing data during wakefulness was not analyzed because movement prevents measurement of accurate volumes when using whole-body plethysmography. When differences were detected with ANOVA, Student-Neuman-Keuls post hoc tests were run for all main effects and interactions. Differences were considered significant when p<0.05. Values are expressed as means±SE.

[9] abbreviates: 2 minute AUC of minute volume increase vs. comparator N-[2,6-di-(n-propylamino)-[1,3]pyrimidin-4-yl]-N,O-dimethyl-hydroxylamine.
The mark [10] stands for this setting: peak minute ventilation increase, urethane-anesthetized rat, i.v. bolus, screening doses 0.1 and 0.3 mg/kg.
The mark [11] stands for this setting: versus treatment with a vehicle.

As a reminder, the melting point is the temperature, or range, at which the solid turns liquid. In general, half-life refers to how long it takes for the measured level to halve. A higher half-life goes with slow decline. By bioavailability is commonly meant dose-corrected exposure relative to a reference, in per cent. A high value points to good availability. With `CCCNc1nc(NC)nc2c(NCCC)nc(NC)nc12.Cl` [Compound 4a, N^2,N^6-Dimethyl-N^4,N^8-di-n-propyl-pyrimido[5,4-d]pyrimidine-2,4,6,8-tetraamine hydrochloride], the melting point was 229 to 232 °C. For the same molecule, the “AUC MV Inc (2 min) (ratio vs. std*)” value in data set [1] (setting [9]) is 1.28 ratio vs. std. In data set [1] (anesthetized rat, i.v. bolus), the “duration of increase in minute ventilation” value is “approximately 2 minutes”, the “effect on blood pressure” value was “negligible effects”, the “effect on minute ventilation above baseline values” is “increase” and the “effect on pulse rate” value is reported as “negligible effects”. Besides, the “effect on respiratory rate” value in data set [1] (anesthetized rat, i.v. bolus) is on record as “stimulatory effects on respiratory rate primarily”. In addition, the “dose dependence of effect on minute volume” value in [1] (based on a two-minute average) is recorded as “dose-dependent effect”. Also, the “effect compared to a reference compound as measured by area-under-curve” value in data set [1] (minute volume, two-minute average) was “greater effect”. The molecule also registered a half-life at 5 μM in [2] (liver microsomes) of 411 min. In data set [3], this molecule came in with a half-life at 5 μM of 273 min. Moreover, the bioavailability in data set [4] came to 38%.
For the molecule `C#CCNc1nc(N(C)OC)nc2c(NCCC)nc(N(C)OC)nc12.Cl` [Compound 15a, N^2,N^6-Bis(N-methoxy(N-methyl)amino)-N^4-n-propylamino-N^8-prop-2-ynylamino-pyrimido[5,4-d]pyrimidine hydrochloride], the “AUC MV Inc (2 min) (ratio vs. std*)” value in [1] (setting [9]) is reported as 0.00 ratio vs. std. For the same molecule, the “VE Peak (% Inc.)” value in [1] (setting [10]) is on record as 6 % Inc. Besides, in data set [2], the “HLM T½” value was found to be 91 min. Further, the “RLM T½” value in [5] is 34 min.
In the case of `CCCNc1nc(NC)nc2c(NCCC)ncnc12.Cl` [Compound 22a, N^2-Methyl-N^4,N^8-di-n-propylpyrimido[5,4-d]primidine-2,4,8-triamine hydrochloride], the “AUC MV Inc (2 min) (ratio vs. std*)” value in data set [1] (setting [9]) is recorded as 0.01 ratio vs. std. For the same molecule, the “VE Peak (% Inc.)” value in data set [1] (setting [10]) is on record as 9 % Inc. Further, in [2], the “HLM T½” value came to 21 min. For the same molecule, the “RLM T½” value in data set [5] is 9 min.
Consider `CCCNc1nc(NCCC(F)(F)F)nc2c(NCCC)nc(NC)nc12` [Compound 39a, hydrochloride], for which the “AUC MV Inc (2 min) (ratio vs. std*)” value in data set [1] (setting [9]) came to 0.71 ratio vs. std. The half-life at 5 μM was found to be 238 min in data set [2] (microsomes) and 154 min in [6] (male, rat, microsomes).
As for `CCCNc1nc(N2CCOCC2)nc2c(NCCC)nc(NC)nc12` [Compound 41a, N^2-Methyl-N^4N^8-di-n-propyl-6-(morpholin-4-yl)-pyrimido[5,4-d]pyrimidine-2,4,8-triamine], in [1] (rat, in vivo), the “AUC MV Inc (2 min) (ratio vs. std*)” value was found to be 0.36 ratio vs. std and the “VE Peak (% Inc.)” value is 57 % Inc. Moreover, the “HLM T½” value in [2] was found to be 187 min. Further, in data set [6] (rat liver microsomes, 5 μM compound, NADPH, 37° C.), the “RLM T½” value is listed as 100 min.
The term solubility denotes the dissolved amount per volume that the medium holds. Consider `CNc1nc(NCC2CC2)nc2c(NC)nc(NCC3CC3)nc12.Cl` [Compound 85a, N^2,N^6-Bis-cyclopropylmethyl-N^4,N^8-dimethyl-pyrimido[5,4-d]pyrimidine-2,4,6,8-tetraamine hydrochloride], for which the melting point was in the range of 264 to 265 °C. The “AUC MV Inc (2 min) (ratio vs. std*)” value in data set [1] (setting [9]) is 0.51 ratio vs. std. In addition, the solubility in data set [7] (Reflux) was over 50 mg/mL. The solubility in [7] (r.t.) was under 50 mg/mL. Besides, the half-life at 5 μM in data set [2] (liver microsomes) amounted to 389 min. This molecule also returned a half-life at 5 μM in data set [3] of 386 min. For the same molecule, in [8] (setting [11]), the apnea frequency result was “reduced; also recorded: decreased” and the “number of apneas per hr expressed as a percent change from baseline (pre-drug)” value is on record as “reduced; also recorded: decreased”. For the same molecule, in data set [8], the “minute volume compared to a vehicle-treated group” value is recorded as “did not cause an increase; also recorded: do not cause increases”, the “number of apneas per hr versus vehicle” value is on record as “reduced; also recorded: decreased” and the “ventilation per unit time compared to vehicle” value was “did not cause an increase; also recorded: do not cause an increase”.
